Test in data set [1]: not given
The source holds these as a separate data set.

Data set [2] can be described thus: Phase I-II study of Lipoplatin combined with gemcitabine: toxicity, DLT, MTD. It counts as in vivo, human. To be noted: combined with Lipoplatin 100 mg/m2, every two weeks.
Procedure: Patients and Methods: The gemcitabine dose was kept standard at 1000 mg/m2 and the lipoplatin dose was escalated from 25 mg/m2 to 125 mg/m2. The treatment was administered to advanced pretreated pancreatic cancer patients who were refractory to previous chemotherapy which included gemcitabine.
Gemcitabine was given as a 60 min i.v. infusion in 500 ml normal saline on days 1 and 15 at a dose of 1000 mg/m2 and cycles were repeated every 4 weeks (28 days). The infusions on days 1 and 15 were considered to be 1 cycle. […] Prophylactic administration of recombinant human granulocyte colony-stimulating factor (rhG-CSF) was not allowed. In cases of grade 3 neutropenia, these patients would receive subsequent infusions of pegfilgrastim 6 mg, on the 6th or 7th day and treatment would be postponed for one week. Treatment was administered for at least three cycles or until disease progression. The study was a phase I/II cohort, dose escalation trial of Lipoplatin® and gemcitabine. Its aims were to determine the dose limiting toxicity (DLT) of the combination and to define the maximum tolerated dose (MTD) as a recommended dose for phase II and to collect preliminary data on the efficacy of the drug in pretreated patients with pancreatic cancer. […]
Data set [3] can be described thus: Total platinum in rat plasma after i.p. injection (pharmacokinetics, atomic absorption). As to conditions: female, Wistar, in vivo, ip, 15 mg/kg. On the procedure: For pharmacokinetic studies 20 Wistar female rats, 2-3 months of age were used of an average body weight of 150 g. […] Two animals per time point were used. […] Blood was collected in heparinized Eppendorf tubes and was centrifuged. Total platinum levels in plasma was determined using furnace Atomic Absorption (AA700 Perkin Elmer).
At various time points postinjection blood was drawn, plasma was isolated and total platinum levels were measured for pharmacokinetic studies.
This was calculated by linear regression analysis of the logarithmic plasma concentration-time curve by the formula Kel=[Ln(Cp1)−Ln(Cp2)]/(t2−t1) where t1 and t2 are the starting and ending time points of measurements and Cp1 and Cp2 the starting and ending concentrations of total platinum in plasma for t1 and t2, respectively.
This was calculated by the formula: t½=0.693 (1/Kel). 1/Kel is the mean residence time (MRT), the statistical moment analogy to half-life t½ (Gibaldi et al, 1982).

The nature of data set [4]: Toxicity of i.v. doses in mice.
The subject of data set [5] is human breast cancers in mice. The experiment in a line: Human breast cancer xenografts in mice, intravenous injections. As to conditions: 6 intravenous injections with 4 days intervals; Lipoxal 16 mg/Kg, oxaliplatin at its MTD. In general terms: A xenograft is tissue or cells of one species grown in another, often human tumour cells in immunodeficient mice.
[6] abbreviates: rats i.p., 15 mg/Kg (estimation) (Lipoplatin 30, cisplatin 5 mg/Kg).
Setting [7] is: rats i.p., Lipoplatin 30, cisplatin 5 mg/Kg.
The mark [8] stands for this setting: female, Wistar, rat, in vivo, ip, 15 mg/kg.

The molecule `N.N.[Cl][Pt][Cl]` [cisplatin, cis-PtCl2(NH3)2] returned a maximum tolerated dose (rats i.p.) of 5 mg/kg. Moreover, the “total platinum in liver from 24 to 150 h” value in data set [1] (rats i.p. 5 mg/Kg) amounted to 1. Further, in data set [1] (rats i.p., 15 mg/Kg (cisplatin 5 mg/Kg)), the “time at which the liver level is attained” value was 20 min. In data set [1] (setting [6]), the “total platinum, Heart, 5 h” value is reported as 0.2 mg Pt/g tissue; the “total platinum, Kidney, 5 h” value was 6.8 mg Pt/g tissue; the “total platinum, Liver, 5 h” value was 2.4 mg Pt/g tissue; the “total platinum, Lung, 5 h” value is 0.7 mg Pt/g tissue. The “total platinum, Spleen, 5 h” value in data set [1] (setting [6]) is recorded as 1.2 mg Pt/g tissue. Besides, in data set [1] (setting [7]), the “total platinum, Brain, 5-7 days” value worked out at 0 mg Pt/g tissue; the “total platinum, Brain, 5 h” value came out at 0.1 mg Pt/g tissue; the “total platinum, Brain, maximum (7-20 min)” value is 0.3 mg Pt/g tissue.
For the molecule `Nc1ccn([C@@H]2O[C@H](CO)[C@@H](O)C2(F)F)c(=O)n1` [gemcitabine], in data set [2], the “MTD of gemcitabine in the combination” value is 1000 mg/m2.
Regarding `O=C1[O][Pt]2([NH]C3CCCCC3[NH2+]2)[O]C1=O` [oxaliplatin, cis-[(1R,2 R)-1,2-cyclohexanediamine-N,N][oxalato(2-)-O,O] platinum], the “time post-injection at which total platinum in plasma reaches zero” value in data set [3] is on record as about 100 h. The “final body weight at 7 days (150 g before study)” value (15 mg/Kg i.p.) is recorded as 109 g. The “weight loss of total body weight during 7 days” value (15 mg/kg i.p.) is “over 40 gr”. Besides, under “15 mg/kg i.p., 7.8 or 7 days”, the “Weight of total animal organ: Heart” value turned out to be 0.523 g, the “Weight of total animal organ: Kidney” value was determined as 0.475 g, the “Weight of total animal organ: Lung” value is 0.934 g and the “Weight of total animal organ: Spleen” value is recorded as 0.188 g. The molecule also had a weight loss (30 mg/Kg i.p., 7 days post-treatment) of 33%. Also, the “average weight after 7 days (from 150 g)” value (30 mg/Kg i.p., day 7) came out at 100 g. For the same molecule, under “rats i.p.”, the “hepatic toxicity / nephrotoxicity” value is recorded as “absence of nephrotoxicity”. In data set [1] (setting [8]), the “Kel, kidney” value stood at 0.002 h⁻¹ and the “time at which the early spleen maximum is reached” value fell in the range of 15 to 20 min. Further, the “Cl, kidney” value in data set [1] (rat, in vivo, ip, 15 mg/kg) worked out at 0.01 h⁻¹. Also, the “outcome of mice injected with 5 mg/Kg” value in data set [4] (5 mg/Kg) is “died of toxicity”. This molecule gave an MTD in data set [4] (mouse, in vivo) of 4 mg/kg. In addition, the “effect on human breast cancers in mice” value in data set [5] is on record as “only cause shrinkage, not disappearance”.

(Values after patent US20090053302A1, “CANCER TREATMENTS” (priority 2006, published 2009).)
